Patent US20250034151A1, “WEE1 INHIBITOR, PREPARATION THEREFOR, AND USE THEREOF” (JIANGSU TASLY DIYI PHARMACEUTICAL CO., LTD., priority 2022, published 2025)
pIC50: −log10 of the molar value.

Experiments:
Wee1 protein = molecular target: T1, Wee1 protein (Homo sapiens, UniProt P30291); assay: Binding of compound to Wee1 protein and Tracer 178 by TR-FRET (Wee1 kinase inhibitory activity); details: 15 nM WEE1, 50 nM Tracer 178, read-out: IC50 (inhibitory activity against Wee1 kinase)
T1 construct: purchased Thermo Fisher PR7373A
T1 sequence (P30291 whole entry): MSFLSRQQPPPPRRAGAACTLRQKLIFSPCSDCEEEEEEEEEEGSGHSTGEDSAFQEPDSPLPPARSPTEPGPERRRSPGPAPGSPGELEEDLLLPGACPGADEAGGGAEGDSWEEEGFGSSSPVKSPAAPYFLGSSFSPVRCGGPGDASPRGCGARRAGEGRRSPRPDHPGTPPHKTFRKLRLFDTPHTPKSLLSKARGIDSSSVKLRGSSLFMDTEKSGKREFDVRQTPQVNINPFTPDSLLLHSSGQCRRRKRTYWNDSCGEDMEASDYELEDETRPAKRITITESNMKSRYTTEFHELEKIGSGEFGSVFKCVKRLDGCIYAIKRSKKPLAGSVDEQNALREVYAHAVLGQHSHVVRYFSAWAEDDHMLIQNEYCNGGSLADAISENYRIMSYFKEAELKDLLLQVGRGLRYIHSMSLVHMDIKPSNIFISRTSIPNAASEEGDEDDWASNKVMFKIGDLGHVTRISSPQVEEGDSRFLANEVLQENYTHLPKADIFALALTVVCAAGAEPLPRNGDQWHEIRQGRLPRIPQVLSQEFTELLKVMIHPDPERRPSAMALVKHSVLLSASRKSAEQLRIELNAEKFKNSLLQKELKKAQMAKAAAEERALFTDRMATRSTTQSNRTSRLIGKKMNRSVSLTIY
Method: First, solutions of the compounds in different concentration gradients were prepared. The compounds were dissolved in DMSO and the compounds were diluted 4 folds with a total of 10 dose points and 2 parallel replicates for each concentration.
The IC50 for inhibition of enzyme activity by the compounds was then calculated using GraphPad Prism 6 and fitted with a log (inhibitor) vs. response-Variable slope mode. The fitting equation was: Y=Bottom+(Top−Bottom)/(1+10^((Log IC50−X)*HillSlope)), wherein Y represents the percentage of residual enzyme activity known and X represents the known concentration of compound after the logarithm.

H1299 cells = assay: Anti-proliferative effect on H1299 cells by Cell Titer-Glo; format: cell-based; details: Homo sapiens, NCI-H1299, 72 h, 3 days, read-out: H1299 (IC50, inhibition of proliferation in vitro)
Method: (§1) Test Example 2: Evaluation of Cell Proliferation Inhibitory Activity
1. Evaluation of the Anti-Proliferative Effect of Compounds on H1299 Cells by the Cell Titer-Glo Method
(§2) Compound solutions of different concentration gradients were prepared. […] The cell growth group without compound was used as a positive control (maximum signal control) and the medium was used as a negative control (minimum signal control), while ensuring that the final level of DMSO in each reaction well was 0.2%. After removing the medium from the 384-well plate, 25 ul of the configured compound at different concentrations was transferred into the well plate and the compound and cells were incubated in the cell incubator at 37° C. with 5% CO2 for 3 days.
(§3) The 384-well plates were removed from the cell incubator and allowed to equilibrate for 1h to room temperature. 25 ul of Cell Titer-Glo assay was added to each well, lysed on a shaker for 2 min and then read out (Luminescence) using a BMG PHERAStar after 10 min incubation. Calculate the inhibition rate from the luminescence signal: first calculate the average of the positive control (maximum signal control) and the negative control (minimum signal control).
(§4) was used to calculate the rate of inhibition of the cells by different concentrations of the compounds. The IC50 of the compound on cell activity inhibition was calculated by fitting a log(inhibitor) vs. response-Variable slope model to GraphPad Prism 6. The fitted equation was: Y=Bottom+(Top−Bottom)/(1+10^((Log IC50−X)*HillSlope)), where Y represents the rate of inhibition and X represents the concentration of the known compound after Log.
(§5) The results of the in vitro anti-cell proliferation assays of H1299 and MIA Paca-2 for the example compounds according to the method described above are shown in Table 2, wherein the IC50 of each compound was determined and classified according to the description as follows: […]

MIA PaCa2 cells = assay: Anti-proliferative effect on MIA PaCa2 cells by Cell Titer-Glo; format: cell-based; details: Homo sapiens, MIA PaCa-2, 72 h, 3 days, read-out: MIA PaCa 2 (IC50, inhibition of proliferation in vitro)
Method: as §1
2. Evaluation of the Anti-Proliferative Effect of Compounds on MIA PaCa2 Cells by the Cell Titer-Glo Method
as §2
as §3, with “1 h” for “1h”
as §4, with “Y=Bottom+(Top-Bottom)/(1+10^((Log” for “Y=Bottom+(Top−Bottom)/(1+10^((Log”, “wherein” for “where”
as §5

| SMILES | pIC50 (Wee1 protein) | pIC50 (H1299 cells) | pIC50 (MIA PaCa2 cells) |
| --- | --- | --- | --- |
| C=CCn1c(=O)c2cnc(Nc3ccc(N4CCN(C)CC4)cc3)nc2n1-c1cccc(C2(S(C)(=O)=O)CC2)n1 [Compound 1] | 8.00 to 8.30 | 5.30 to 5.70 |  |
| C=CCn1c(=O)c2cnc(Nc3ccc(N4C[C@@H]5C[C@H]4CN5C)cc3)nc2n1-c1cccc(N=S(C)(C)=O)n1 [Compound 5] | > 8.30 | 6.00 to 7.00 |  |
| C=CCn1c(=O)c2cnc(Nc3ccc(OC4CN5CCC4CC5)cc3)nc2n1-c1cccc(N=S(C)(C)=O)n1 (centres unmarked) [Compound 7] | > 8.30 | 6.00 to 7.00 |  |
| C=CCn1c(=O)c2cnc(Nc3ccc(N(CC)CC(=O)NC)cc3)nc2n1-c1cccc(C(C)(C)O)n1 [Compound 13] | 8.00 to 8.30 | 5.00 to 5.30 | 5.00 to 5.30 |
| C=CCn1c(=O)c2cnc(Nc3ccc(N(CC)CC(=O)N4CCN(C)CC4)cc3)nc2n1-c1cccc(C(C)(C)O)n1 [Compound 14] | 8.00 to 8.30 | 5.00 to 5.30 | 5.30 to 5.70 |
| C=CCn1c(=O)c2cnc(Nc3ccc(-c4cc(=O)[nH]c5c4N4CCC5CC4)cc3)nc2n1-c1cccc(C(C)(C)O)n1 [Compound 16] | 7.00 to 8.00 | < 5.00 | < 5.00 |
| C=CCn1c(=O)c2cnc(Nc3ccc(N4CC5CCC(C4)O5)cc3)nc2n1-c1cccc(C(C)(C)O)n1 [Compound 17] | 8.00 to 8.30 | 6.00 to 7.00 | 5.70 to 6.00 |
| C=CCn1c(=O)c2cnc(Nc3ccc(N4C[C@H]5C[C@@H]4CO5)cc3)nc2n1-c1cccc(C(C)(C)O)n1 [Compound 20] | 8.00 to 8.30 | 6.00 to 7.00 | 5.70 to 6.00 |
| C=CCn1c(=O)c2cnc(Nc3ccc(N4CC5CC4CN5C4CCN(C)CC4)c(C)c3)nc2n1-c1cccc(C(C)(C)O)n1 (centres unmarked) [Compound 21] | 7.00 to 8.00 | 5.70 to 6.00 | 6.00 to 7.00 |
| C=CCn1c(=O)c2cnc(Nc3ccc(N4CC5CC(CN(Cc6ccccc6)C5)C4)cc3)nc2n1-c1cccc(C(C)(C)O)n1 [Compound 22] | 7.00 to 8.00 | 6.00 to 7.00 | 5.70 to 6.00 |
| C=CCn1c(=O)c2cnc(Nc3ccc(N(C)[C@H]4CN5CCC4CC5)cc3)nc2n1-c1cccc(C(C)(C)O)n1 [Compound 29] | 8.00 to 8.30 | < 5.00 | < 5.00 |
| C=CCn1c(=O)c2cnc(Nc3ccc(N4C[C@@H]5C[C@H]4CN5CC(F)(F)F)cc3)nc2n1-c1cccc(C(C)(C)O)n1 [Compound 30] | > 8.30 | 5.70 to 6.00 | 5.70 to 6.00 |
| C=CCn1c(=O)c2cnc(Nc3ccc(N4CCOc5ccccc54)cc3)nc2n1-c1cccc(C(C)(C)O)n1 [Compound 31] | 7.00 to 8.00 | 5.00 to 5.30 | 5.00 to 5.30 |
| C=CCn1c(=O)c2cnc(Nc3ccc(C4CC45C(=O)C4CCN5CC4)cc3)nc2n1-c1cccc(C(C)(C)O)n1 (centres unmarked) [Compound 32] | 7.00 to 8.00 | 5.30 to 5.70 | 5.30 to 5.70 |
| C=CCn1c(=O)c2cnc(Nc3ccc(N4CC5CC(CN(CCOC)C5)C4)cc3)nc2n1-c1cccc(C(C)(C)O)n1 [Compound 34] | 7.00 to 8.00 | 5.00 to 5.30 | 5.30 to 5.70 |
| C=CCn1c(=O)c2cnc(Nc3ccc(C4(O)CCN(C)CC4)cc3)nc2n1-c1cccc(C(C)(C)O)n1 [Compound 35] | 7.00 to 8.00 | 5.30 to 5.70 | 5.70 to 6.00 |
| C=CCn1c(=O)c2cnc(Nc3ccc(-n4cc(N(C)C)cn4)cc3)nc2n1-c1cccc(C(C)(C)O)n1 [Compound 36] | 7.00 to 8.00 | 5.70 to 6.00 | 5.70 to 6.00 |
| C=CCn1c(=O)c2cnc(Nc3ccc(N4C[C@@H]5C[C@H]4CN5CCO)cc3)nc2n1-c1cccc(C(C)(C)O)n1 [Compound 38] | 7.00 to 8.00 | 5.30 to 5.70 | 6.00 to 7.00 |
| C=CCn1c(=O)c2cnc(Nc3ccc(N4C[C@@H]5C[C@H]4CN5C(C)C)cc3)nc2n1-c1cccc(C(C)(C)O)n1 [Compound 41] | 7.00 to 8.00 | 6.00 to 7.00 | 6.00 to 7.00 |

| SMILES | pIC50 (Wee1 protein) | pIC50 (H1299 cells) | pIC50 (MIA PaCa2 cells) |
| --- | --- | --- | --- |
| C=CCn1c(=O)c2cnc(Nc3ccc(N4[C@@H]5C[C@H]4CN(C)C5)cc3)nc2n1-c1cccc(C(C)(C)O)n1 [Compound 43] | 7.00 to 8.00 | 5.30 to 5.70 | 5.30 to 5.70 |
| C=CCn1c(=O)c2cnc(Nc3ccc(N4C[C@@H]5C[C@H]4CN5CCF)cc3)nc2n1-c1cccc(C(C)(C)O)n1 [Compound 44] | 8.00 to 8.30 | 6.00 to 7.00 | 6.00 to 7.00 |
| C=CCn1c(=O)c2cnc(Nc3cnn(-c4ccc(N(C)C)cc4)c3)nc2n1-c1cccc(C(C)(C)O)n1 [Compound 45] | 7.00 to 8.00 | < 5.00 | 5.00 to 5.30 |
| C=CCn1c(=O)c2cnc(Nc3ccc(C4CC45C(=O)C4CCN5CC4)cc3)nc2n1-c1cccc(N=S(C)(C)=O)n1 (centres unmarked) [Compound 47] | > 8.30 | 6.00 to 7.00 | 6.00 to 7.00 |
| C=CCn1c(=O)c2cnc(Nc3ccc([C@H]4C[C@@]45C(=O)C4CCN5CC4)cc3)nc2n1-c1cccc(N=S(C)(C)=O)n1 [Compound 47a] | 7.00 to 8.00 | 6.00 to 7.00 | 5.70 to 6.00 |
| C=CCn1c(=O)c2cnc(Nc3ccc([C@@H]4C[C@]45C(=O)C4CCN5CC4)cc3)nc2n1-c1cccc(N=S(C)(C)=O)n1 [Compound 47b] | 7.00 to 8.00 | 5.30 to 5.70 | 5.30 to 5.70 |
| C=CCn1c(=O)c2cnc(Nc3ccc(N4CCN(C)c5ccccc54)cc3)nc2n1-c1cccc(C(C)(C)O)n1 [Compound 50] | 6.00 to 7.00 | 5.00 to 5.30 | < 5.00 |
| C=CCn1c(=O)c2cnc(Nc3ccc(-n4cc(N5CCCC5)cn4)cc3)nc2n1-c1cccc(C(C)(C)O)n1 [Compound 55] | 7.00 to 8.00 | 5.70 to 6.00 | 5.70 to 6.00 |
| C=CCn1c(=O)c2cnc(Nc3ccc(N4CC5CC(C4)N5C4COC4)cc3)nc2n1-c1cccc(C(C)(C)O)n1 [Compound 58] | 8.00 to 8.30 | 6.00 to 7.00 | 6.00 to 7.00 |
| C=CCn1c(=O)c2cnc(Nc3ccc(N4CC5CC(C4)N5C)cc3)nc2n1-c1cccc(C(C)(C)OC)n1 [Compound 60] | 8.00 to 8.30 | 6.00 to 7.00 | 6.00 to 7.00 |
| C=CCn1c(=O)c2cnc(Nc3ccc(N4CC5CC(C4)N5C4CN(C)C4)cc3)nc2n1-c1cccc(C(C)(C)O)n1 [Compound 63] | 5.00 to 6.00 | < 5.00 | < 5.00 |
| C=CCn1c(=O)c2cnc(Nc3ccc(N4CC5CC(C4)N5C(=O)OC)cc3)nc2n1-c1cccc(C(C)(C)O)n1 [Compound 69] | 7.00 to 8.00 | 6.00 to 7.00 |  |
| C=CCn1c(=O)c2cnc(Nc3ccc(N4CCN(C)CC4)cc3)nc2n1-c1ccc2c(C(C)=O)cn(CC)c2n1 [Compound 70] | 8.00 to 8.30 | 6.00 to 7.00 |  |
| C=CCn1c(=O)c2cnc(Nc3ccc(N4CCN(C)CC4)cc3)nc2n1-c1ccc2c(n1)N(CC)C(=O)C2(C)C [Compound 71] | 7.00 to 8.00 | 5.30 to 5.70 |  |
| C=CCn1c(=O)c2cnc(Nc3ccc(N4CCN(C)CC4)cc3)nc2n1-c1cc2ccccc2s1 [Compound 72] | 7.00 to 8.00 | 5.00 to 5.30 |  |
| C=CCn1c(=O)c2cnc(Nc3ccc(N4CCN(C)CC4)cc3)nc2n1-c1ccc2c(F)cn(CC)c2n1 [Compound 73] | 7.00 to 8.00 | 5.70 to 6.00 |  |
| C=CCn1c(=O)c2cnc(Nc3ccc(N4CCN(C)CC4)cc3)nc2n1-c1ccc2nc(C)n(CC)c2n1 [Compound 75] | 7.00 to 8.00 | 5.70 to 6.00 |  |
| C=CCn1c(=O)c2cnc(Nc3cc(F)c(N4CC5CC(C4)N5C)c(F)c3)nc2n1-c1cccc(C(C)(C)O)n1 [Compound 79] | 7.00 to 8.00 | < 5.00 |  |
